In this assay the test system is HCV GT1b replicon. Put plainly: HCV GT1b replicon luciferase reporter assay (2209-23 cells). The assay is classed as cell-based. The conditions noted are these: Hepatitis C virus, genotype 1a / genotype 1b; 2209-23 cells (Huh-7 with GT-1b Con1 subgenomic replicon), Renilla luciferase read 72 hours after compound addition; read-out: GT-1a - EC50 (nM) HCV, GT1b, IC50 (µM). An excerpt:
Determination of compounds HCV GT1b inhibitory replicon activity using the replicon luciferase reporter assay
The 2209-23 cell line was developed at Roche by stable transfection of the hepatoma cell line Huh-7 with a GT-1b Con1 subgenomic bicistronic replicon as previously described. Subgenomic replicon cell line was established in cured Huh7 cells, obtained from R. Bartenschlager (J Virol. 2003 March; 77 (5):3007-19) The GT-1a H77 subgenomic replicon vector pRLuc H77 1b 75 S/I, was created by replacing the nonstructural region of the GT-1b Con1 subgenomic replicon by the one of the H77 strain, except for the first 75 amino acids of the NS3 protein that are from GT-1b Conl strain. (J. Virol. 2001 77:5352-59) The GT-1a pRLuc H77 1b 75 S/I subgenomic replicon cell line was established in cured Huh7 cells, obtained from R. Bartenschlager. (J Virol. 2003 March; 77 (5):3007-19)
All the subgenomic replicon cell lines were cultured in Dulbecco's Modified Eagle Medium (DMEM-Glutamax™-I; Invitrogen Cat #10569-010). The medium was supplemented with 10% Fetal Bovine Serum (Invitrogen Cat #10082-147), 1% penicillin/streptomycin (Mediatech Cat #30-002-CI) and 500 μg/ml of G418 (Mediatech Cat #30-234-CI). Cells were maintained at 37° C. in a humidified 5% CO2 atmosphere.
2209-23 cells were plated at a cell density of 5000 cells per well in 96 well plates (Becton Dickinson, Cat #35 3296). Cells were plated in 90 μl of Dulbecco's Modified Eagle Medium (DMEM-Glutamax™-I), (Invitrogen Cat #10569-010) medium was supplemented with 5% Fetal Bovine Serum (Invitrogen Cat #10082-147), 1% penicillin/streptomycin (Mediatech Cat #30-002-CI). The pRluc H77 1b 75 SA cells were plated in 96-well plate at 3000 cells/well in DMEM-Glutamax™-I containing 5% FBS and 1% penicillin/streptomycin in 90 μl final volume. Cells were allowed to equilibrate for 24 hours at 37° C. and 5% CO2 at which time compounds were added. Compounds (or medium as a control) were added 24 hours post-plating in 3 fold dilutions at a final DMSO concentration of 1% in 10 μl volume. Renilla luciferase reporter signal was read 72 hours after addition of compounds using the Renilla Luciferase Assay System (Promega, cat #E2820). EC50 values were defined as the compound concentration at which a 50% reduction in the levels of renilla luciferase reporter was observed as compared to control samples in the absence of compound and was determined by non-linear fitting of compound dose-response data. The EC50 was approximated if maximum percentage inhibition was less than 90% and more than 70%.
Background: A replicon is a self-replicating genome or part of one, used to study replication in cells.

Structures are written as SMILES.

In patent US9403805B2, “Antiviral compounds” (Hoffmann-La Roche Inc., priority 2012, dated 2016) one finds IC50 data, which are given here for 25 compounds.

As usually defined, the IC50 is the concentration that inhibits the measured activity by half. `O=C(N[C@H]1C[C@@H](C(=O)N2CCC2)N(CC2CCCCC2)C1)c1ccc2ccccc2c1O` [Compound I-29, 1-Hydroxy-naphthalene-2-carboxylic acid [(3S,5S)-5-(azetidine-1-carbonyl)-1-cyclohexylmethyl-pyrrolidin-3-yl]-amide]: the half-maximal inhibitory concentration (IC50) amounted to 826 nM. In the case of `O=C(N[C@H]1C[C@@H](C(=O)NCc2ccccc2)N(CC2CCCCC2)C1)c1ccc2ccccc2c1O` [Compound I-13, (2S,4S)-1-Cyclohexylmethyl-4-[(1-hydroxy-naphthalene-2-carbonyl)-amino]-pyrrolidine-2-carboxylic acid benzylamide] it was 163 nM; in that of `CCOC(=O)[C@@H]1C[C@H](NC(=O)c2ccc3cccnc3c2O)CN1CC1CCCCC1` [Compound I-24, (2S,4S)-1-Cyclohexylmethyl-4-[(8-hydroxy-quinoline-7-carbonyl)-amino]-pyrrolidine-2-carboxylic acid ethyl ester], 367 nM; in that of `CCOC(=O)[C@@H]1C[C@H](NC(=O)c2ccc3ccccc3c2O)CN1C(=O)C1CCCCC1` [Compound I-14, (2S,4S)-1-Cyclohexanecarbonyl-4-[(1-hydroxy-naphthalene-2-carbonyl)-amino]-pyrrolidine-2-carboxylic acid ethyl ester], 184 nM. `COC(=O)[C@@H]1C[C@H](NC(=O)c2ccc3ccccc3c2O)CN1Cc1ccccc1` [Compound I-11, (2S,4S)-1-Benzyl-4-[(1-hydroxy-naphthalene-2-carbonyl)-amino]-pyrrolidine-2-carboxylic acid methyl ester]: the IC50 amounted to 121 nM. In the case of `O=C(N[C@H]1C[C@@H](c2nc3ccccc3o2)N(CC2CCCCC2)C1)c1ccc2ccccc2c1O` [Compound I-5, 1-Hydroxy-naphthalene-2-carboxylic acid ((3S,5S)-5-benzooxazol-2-yl-1-cyclohexylmethyl-pyrrolidin-3-yl)-amide] it was 52 nM; in that of `O=C(N[C@H]1C[C@@H](C(=O)N2CCCC2)N(CC2CCCCC2)C1)c1ccc2ccccc2c1O` [Compound I-26, 1-Hydroxy-naphthalene-2-carboxylic acid [(3S,5S)-1-cyclohexylmethyl-5-(pyrrolidine-1-carbonyl)-pyrrolidin-3-yl]-amide], 640 nM. In the case of `O=C(N[C@H]1C[C@@H](c2ncc(-c3ccccc3)o2)N(CC2CCCCC2)C1)c1ccc2ccccc2c1O` [Compound I-8, 1-Hydroxy-naphthalene-2-carboxylic acid [(3S,5S)-1-cyclohexylmethyl-5-(5-phenyl-oxazol-2-yl)-pyrrolidin-3-yl]-amide] it was 86 nM. Take `CCOC(=O)[C@@H]1C[C@H](NC(=O)c2ccc3ccccc3c2O)CN1CC1CCCCC1` [Compound I-4, (2S,4S)-1-Cyclohexylmethyl-4-[(1-hydroxy-naphthalene-2-carbonyl)-amino]-pyrrolidine-2-carboxylic acid ethyl ester]: the 50% inhibitory concentration (IC50) was 29 nM.

Regarding `CC(C)NC(=O)[C@@H]1C[C@H](NC(=O)c2ccc3ccccc3c2O)CN1CC1CCCCC1` [Compound I-15, (2S,4S)-1-Cyclohexylmethyl-4-[(1-hydroxy-naphthalene-2-carbonyl)-amino]-pyrrolidine-2-carboxylic acid isopropylamide], the 50% inhibitory concentration (IC50) was 187 nM. In the case of `CCOC(=O)[C@@H]1C[C@H](NC(=O)c2ccc3ccccc3c2O)CN1CC1CCCC1` [Compound I-12, (2S,4S)-1-Cyclopentylmethyl-4-[(1-hydroxy-naphthalene-2-carbonyl)-amino]-pyrrolidine-2-carboxylic acid ethyl ester] it was 129 nM. Regarding `CCOC(=O)[C@@H]1C[C@H](NC(=O)c2ccc3ccccc3c2O)CN1CC1CCC1` [Compound I-17, (2S,4S)-1-Cyclobutylmethyl-4-[(1-hydroxy-naphthalene-2-carbonyl)-amino]-pyrrolidine-2-carboxylic acid ethyl ester], the IC50 came out at 219 nM. In the case of `CC(C)(C)OC(=O)[C@@H]1C[C@H](NC(=O)c2ccc3ccccc3c2O)CN1CC1CCCCC1` [Compound I-1, (2S,4S)-1-Cyclohexylmethyl-4-[(1-hydroxy-naphthalene-2-carbonyl)-amino]-pyrrolidine-2-carboxylic acid tert-butyl ester], the IC50 is 47 nM. Regarding `CCOC(=O)[C@@H]1C[C@H](NC(=O)c2ccc3ccccc3c2O)CN1CC(C)C` [Compound I-22, (2S,4S)-4-[(1-Hydroxy-naphthalene-2-carbonyl)-amino]-1-isobutyl-pyrrolidine-2-carboxylic acid ethyl ester], the IC50 was 299 nM. Consider `COC(=O)[C@]1(C)C[C@H](NC(=O)c2ccc3ccccc3c2O)CN1CC1CCCCC1` [Compound I-21, (2S,4S)-1-Cyclohexylmethyl-4-[(1-hydroxy-naphthalene-2-carbonyl)-amino]-2-methyl-pyrrolidine-2-carboxylic acid methyl ester], for which the concentration for half-maximal inhibition (IC50) is 247 nM. To `CCNC(=O)[C@@H]1C[C@H](NC(=O)c2ccc3ccccc3c2O)CN1CC1CCCCC1` [Compound I-18, (2S,4S)-1-Cyclohexylmethyl-4-[(1-hydroxy-naphthalene-2-carbonyl)-amino]-pyrrolidine-2-carboxylic acid ethylamide] belongs 221 nM.

On to `COC(=O)[C@@H]1C[C@H](NC(=O)c2ccc3ccccc3c2O)CCN1CC1CCCCC1` [Compound I-6, (2S,4R)-1-Cyclohexylmethyl-4-[(1-hydroxy-naphthalene-2-carbonyl)-amino]-piperidine-2-carboxylic acid methyl ester], for which the concentration for half-maximal inhibition (IC50) amounted to 55 nM. To `COC(=O)[C@@H]1C[C@@H](NC(=O)c2ccc3ccccc3c2O)CN1CC1CCCCC1` [Compound I-28, (2S,4R)-1-Cyclohexylmethyl-4-[(1-hydroxy-naphthalene-2-carbonyl)-amino]-pyrrolidine-2-carboxylic acid methyl ester] belongs 793 nM; to `O=C(N[C@H]1C[C@@H](c2ncco2)N(CC2CCCCC2)C1)c1ccc2ccccc2c1O` [Compound I-9, 1-Hydroxy-naphthalene-2-carboxylic acid ((3S,5S)-1-cyclohexylmethyl-5-oxazol-2-yl-pyrrolidin-3-yl)-amide], 114 nM. In the case of `COC(=O)[C@@H]1C[C@H](NC(=O)c2ccc3ccccc3c2N)CN1CC1CCCCC1` [Compound I-23, (2S,4S)-4-[(1-Amino-naphthalene-2-carbonyl)-amino]-1-cyclohexylmethyl-pyrrolidine-2-carboxylic acid methyl ester] it was 336 nM. In the case of `CCNC(=O)[C@@H]1C[C@H](NC(=O)c2ccc3ccccc3c2O)CCN1CC1CCCCC1` [Compound I-19, (2S,4R)-1-Cyclohexylmethyl-4-[(1-hydroxy-naphthalene-2-carbonyl)-amino]-piperidine-2-carboxylic acid ethylamide] it was 223 nM. Consider `CCOC(=O)[C@@H]1C[C@@H](NC(=O)c2ccc3ccccc3c2O)CN1Cc1ccccc1` [Compound I-27, (2S,4R)-1-Benzyl-4-[(1-hydroxy-naphthalene-2-carbonyl)-amino]-pyrrolidine-2-carboxylic acid ethyl ester], for which the IC50 worked out at 659 nM. Take `NC(=O)[C@@H]1C[C@H](NC(=O)c2ccc3ccccc3c2O)CN1CC1CCCCC1` [Compound I-25, (2S,4S)-1-Cyclohexylmethyl-4-[(1-hydroxy-naphthalene-2-carbonyl)-amino]-pyrrolidine-2-carboxylic acid amide]: the IC50 was found to be 509 nM. In the case of `CCOC(=O)[C@@H]1C[C@H](NC(=O)c2ccc3ccccc3c2O)CCN1CC1CCCCC1` [Compound I-3, (2S,4R)-1-Cyclohexylmethyl-4-[(1-hydroxy-naphthalene-2-carbonyl)-amino]-piperidine-2-carboxylic acid ethyl ester] it was 51 nM. In the case of `Cc1cnc([C@@H]2C[C@H](NC(=O)c3ccc4ccccc4c3O)CN2CC2CCCCC2)o1` [Compound I-7, 1-Hydroxy-naphthalene-2-carboxylic acid [(3S,5S)-1-cyclohexylmethyl-5-(5-methyl-oxazol-2-yl)-pyrrolidin-3-yl]-amide] it was 70 nM.
